{"source": "patent US20240058373A1", "about": "“FIBRE MIXTURE FOR YOUNG CHILDREN” (N.V. Nutricia, priority 2020, published 2024)", "test_system": "standard human gut microbiota pool", "test": "i-screen fermentation of fibres by faecal microbiota: pH and SCFA/BCFA formation", "assay_type": "cell-based", "details": "after 24 h of fermentation in SIEM medium at 37° C., fibres 10 mg/ml", "text": "For studying fermentation of fibres by microbiota the i-screen platform was used, see Schuren et al., The i-screen: A Versatile Preclinical Platform for Gut Microbiota Studies, J Prob Health 2019 7:212. A standard human gut microbiota pool was used for the fermentation. This pool was established via fecal donations from 6 healthy volunteers (Caucasian individuals, age 25-60 years, no antibiotic use in the 3 months preceding the donation, self-assessment of health status). Before starting the i-screen fermentation with the test compounds, the standardized fecal pool was incubated in SIEM (standard ileal effluent medium) under anaerobic conditions overnight (37° C.; 300 rpm) in order to activate the bacteria.\nThe fibres were tested at a concentration of 10 mg/ml. All compounds were tested in triplicate.\nThe following conditions were applied: • 1 No added fibres, SIEM medium only • 2 Mixture of beta-galactooligosaccharides (Vivinal GOS, Friesland Campina), inulin (Orafti HP (Beneo-Orafti Orey) Beneo BE), resistant starch (Novelose 330 (Ingredion UK Ltd) and non-soluble soy polysaccharides, source Fibrim 2000 (DuPont/Danisco) in a weight ratio of 38:38:4:20, prior art MF4 • 3 Mixture of beta-galactooligosaccharides (Vivinal GOS, Friesland Campina), inulin (Orafti HP (Beneo-Orafti Orey) Beneo BE), resistant starch (Novelose 330 (Ingredion UK Ltd) and soluble soy polysaccharides, source Soyafibe-S-Ca100 (Fuji Oil Co, Ltd), in a weight ratio of 38:38:4:20, new MF4 • 4 Lactulose (Duphalac Lactulose, Solvay, the Netherlands)\nAfter 24 hours of fermentation in SIEM medium at 37° C., samples were collected for pH measurements, DNA isolation and for metabolite analysis. The remaining material was stored at −20° C.\nDNA was isolated as described by Ladirat et al. J Microbiol Meth 2013, 92(3), 387-397 with some minor adjustments: the samples were initially mixed with 300 μl lysis buffer (Agowa, Berlin, Germany), 500 μl zirconium beads (0.1 mm), and 500 μl phenol, before being introduced to a Bead Beater (BioSpec Products, Bartlesville, OK, USA) for 3 min. 16S amplicon sequencing DNA was analyzed by using 16S rDNA amplicon sequencing. The V4 hypervariable region was targeted. […] Amplicon quality and size were analyzed on a Fragment Analyzer (Advanced Analytical Technologies, Inc.). […] SCFA covering acetate, propionate, and n-butyrate and branched chain fatty acids (BCFA) covering iso-butyrate and iso-valerate were analyzed as described by as described by Van Nuenen Microbiology in Health and Disease 2003, 15: 137-144. […]\nFor the analysis of total lactate, material resulting from the i-screen fermentation was sampled and centrifuged at 4,000 g for 5 minutes. […] The D- and L-lactate were determined by the Arena 20XL analyser. […]", "data": [{"smiles": "OC[C@H]1O[C@@H](O[C@@H]2[C@@H](CO)OC(O)(CO)[C@H]2O)[C@H](O)[C@@H](O)[C@H]1O", "note": "(mixture of isomers) [lactulose, Lactulose]", "values": [{"measurement": "Mean Butyrate", "value": 49.39, "unit": "mM"}, {"measurement": "Mean Propionate", "value": 6.61, "unit": "mM"}, {"measurement": "Mean Acetate", "setting": "value (s.d.)", "value": "44.93 (1.40) mM"}, {"measurement": "Mean Total SCFA", "setting": "value (s.d.)", "value": "100.9 (2.67) mM"}]}]}
